# Source: US10738028B2, “Spiro three-membered ring, spiro five-membered ring peptide deformylase inhibitor and use thereof in antibacteria and anti-tumor” (priority 2016, dated 2020)
# How the values were obtained:
# Type in all cases: cell-based
# [1] = tested on: methicillin-sensitive Staphylococcus aureus (MSSA); experiment: MIC, two-fold agar dilution (CLSI), clinical isolates
# Method in brief: (§1)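 MIC values come from two-fold agar dilution run per CLSI antimicrobial susceptibility testing procedure.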
# [2] = tested on: methicillin-sensitive Staphylococcus epidermidis (MSSE); experiment: as above
# Method in brief: as §1
# [3] = tested on: Enterococcus faecium (EFM); experiment: as above
# Method in brief: as §1
# [4] = tested on: Escherichia coli (including ESBLs, non-ESBLs); experiment: as above
# Method in brief: as §1
# [5] = tested on: methicillin-resistant Staphylococcus aureus (MRSA); experiment: as above
# Method in brief: as §1
# [6] = tested on: Enterococcus faecalis (EFA); experiment: as above
# Method in brief: as §1
# [7] = tested on: Streptococcus pneoumoniae (SPN); experiment: as above
# Method in brief: as §1
# [8] = tested on: Moraxella catarrhalis (BCA); experiment: as above
# Method in brief: as §1
# [9] = tested on: methicillin-resistant Staphylococcus epidermidis (MRSE); experiment: as above
# Method in brief: as §1
# [10] = tested on: HCT-116 colorectal cancer cell line; experiment: CCK-8 proliferation inhibition; settings: concentration of 30 μM; 72 hours; CCK-8; 30 µM
# Method in brief: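 Growth inhibition is read by CCK-8 (1:10 dilution) after 72 h of compound exposure. HCT-116 cells grow in McCoy's 5A containing 10% newborn bovine serum at 2000 cells/well, with 1‰ DMSO as vehicle control.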
# [11] = tested on: A549 lung cancer cell line; experiment: CCK-8 proliferation inhibition; settings: concentration of 30 μM
# Method in brief: (§2)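 Plating at 2000 cells/well, then incubation overnight at 37° C. Next, a range of compound concentrations for 72 hours (control 1‰ DMSO). Finally, medium decanted and CCK-8 diluted 1:10 added.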
# [12] = tested on: BEL-7402 liver cancer cell line; experiment: CCK-8 proliferation inhibition; settings: concentration of 30 μM, 72 hours, 30 µM
# Method in brief: as §2
# [13] = tested on: MGC-803 gastric cancer cell line; experiment: CCK-8 proliferation inhibition; settings: concentration of 30 μM
# Method in brief: as §2
compound,measurement,setting,value
"CCCC[C@H](CC(=O)NO)C(=O)N1CC2(CCCC2)C[C@H]1C(=O)Nc1ncc(C)s1 [Example 79, (S)-2-((R)-2-(2-(hydroxyamino)-2-oxoethyl)hexanoyl)-N-(5-methylthiazol-2-yl)-2-azaspiro[4.4]nonane-3-amide]",Anti-bacterial activity (MIC),[1]; strain MSSA 15-3,0.5 µg/mL
same,Anti-bacterial activity (MIC),[1]; strain MSSA 15-4,0.125 µg/mL
same,Anti-bacterial activity (MIC),[1]; strain MSSA 15-5,0.125 µg/mL
same,Anti-bacterial activity (MIC),[1]; strain MSSA 15-6,> 32 µg/mL
same,Anti-bacterial activity (MIC),[2]; strain MSSE 15-3,0.25 µg/mL
same,Anti-bacterial activity (MIC),[2]; strain MSSE 15-4,1 µg/mL
same,Anti-bacterial activity (MIC),[2]; strain MSSE 15-5,1 µg/mL
same,Anti-bacterial activity (MIC),[2]; strain MSSE 15-6,0.03 µg/mL
same,Anti-bacterial activity (MIC),[3]; strain EFM 15-1,32 µg/mL
same,Anti-bacterial activity (MIC),[3]; strain EFM 15-2,32 µg/mL
same,Anti-bacterial activity (MIC),[3]; strain EFM 15-3,32 µg/mL
same,Anti-bacterial activity (MIC),[3]; strain EFM 15-4,1 µg/mL
same,Anti-bacterial activity (MIC),[3]; strain EFM 15-5,1 µg/mL
same,Anti-bacterial activity (MIC),[3]; strain EFM 15-6,1 µg/mL
same,Anti-bacterial activity (MIC),[4]; strain ECO+ 15-1,32 µg/mL
same,Anti-bacterial activity (MIC),[4]; strain ECO+ 15-2,> 32 µg/mL
same,Anti-bacterial activity (MIC),[4]; strain ECO+ 15-3,> 32 µg/mL
same,Anti-bacterial activity (MIC),[4]; strain ECO+ 15-4,> 32 µg/mL
same,Anti-bacterial activity (MIC),[4]; strain ECO− 15-1,> 32 µg/mL
same,Anti-bacterial activity (MIC),[4]; strain ECO− 15-2,> 32 µg/mL
same,Anti-bacterial activity (MIC),[4]; strain ECO− 15-3,> 32 µg/mL
same,Anti-bacterial activity (MIC),[4]; strain ECO− 15-4,> 32 µg/mL
same,Anti-bacterial activity (MIC),[5]; strain MRSA 15-1,0.25 µg/mL
same,Anti-bacterial activity (MIC),[5]; strain MRSA 15-2,0.25 µg/mL
same,Anti-bacterial activity (MIC),[5]; strain MRSA 15-3,0.125 µg/mL
same,Anti-bacterial activity (MIC),[5]; strain MRSA 15-4,0.25 µg/mL
same,Anti-bacterial activity (MIC),[6]; strain EFA 15-1,32 µg/mL
same,Anti-bacterial activity (MIC),[6]; strain EFA 15-2,32 µg/mL
same,Anti-bacterial activity (MIC),[6]; strain EFA 15-3,32 µg/mL
same,Anti-bacterial activity (MIC),[6]; strain EFA 15-4,32 µg/mL
same,Anti-bacterial activity (MIC),[6]; strain EFA 15-5,32 µg/mL
same,Anti-bacterial activity (MIC),[6]; strain EFA 15-6,32 µg/mL
same,Anti-bacterial activity (MIC),[6]; strain EFA 15-9,32 µg/mL
same,Anti-bacterial activity (MIC),[7]; strain SPN 16-2,0.06 µg/mL
same,Anti-bacterial activity (MIC),[7]; strain SPN 16-4,0.25 µg/mL
same,Anti-bacterial activity (MIC),[8]; strain BCA 14-1,0.25 µg/mL
same,Anti-bacterial activity (MIC),[8]; strain BCA 14-4,1 µg/mL
same,Anti-bacterial activity (MIC),[8]; strain BCA 14-5,0.25 µg/mL
same,Anti-bacterial activity (MIC),[8]; strain BCA 14-6,1 µg/mL
same,Anti-bacterial activity (MIC),[8]; strain BCA 14-7,0.5 µg/mL
same,Anti-bacterial activity (MIC),[8]; strain BCA 14-8,0.5 µg/mL
same,Anti-bacterial activity (MIC),[8]; strain BCA 14-10,0.25 µg/mL
same,Anti-bacterial activity (MIC),[9]; strain MRSE 15-1,0.25 µg/mL
same,Anti-bacterial activity (MIC),[9]; strain MRSE 15-2,2 µg/mL
same,Anti-bacterial activity (MIC),[9]; strain MRSE 15-3,2 µg/mL
same,Anti-bacterial activity (MIC),[9]; strain MRSE 15-7,2 µg/mL
same,HCT116 inhibition rate/%,[10],75%
same,inhibition at 30 µM,"[11]; Homo sapiens, A549, 72 h",> 50%
same,"Inhibition of proliferation, Lung cancer A549","[11]; 72 hours, 30 µM",50%
same,"Inhibition of proliferation, Liver cancer BEL-7402",[12],77%
same,inhibition at 30 µM,"[13]; Homo sapiens, MGC-803, 72 h",> 50%
same,"Inhibition of proliferation, Gastric cancer MGC-803","[13]; 72 hours, 30 µM",54%
